Reference: patent US7297714B2, “Inhibitors of cathepsin S” (IRM LLC, priority 2003, dated 2007)

Columns and labels:
Type in all cases: biochemical
Caspase 1 = biological target: T1, Caspase 1 (Homo sapiens, UniProt P29466); test: Inhibition Assay for Caspase 1; details: Caspase-1 inhibition constant; pH 7.4; read-out: Ki Cas-1
T1 sequence (P29466 120-297 limits assumed): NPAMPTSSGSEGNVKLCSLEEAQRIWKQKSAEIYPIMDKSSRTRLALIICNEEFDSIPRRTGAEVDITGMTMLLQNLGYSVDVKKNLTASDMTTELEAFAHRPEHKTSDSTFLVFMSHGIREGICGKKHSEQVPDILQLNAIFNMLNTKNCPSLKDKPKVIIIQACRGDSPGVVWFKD
T1 sequence (P29466 317-404 limits assumed): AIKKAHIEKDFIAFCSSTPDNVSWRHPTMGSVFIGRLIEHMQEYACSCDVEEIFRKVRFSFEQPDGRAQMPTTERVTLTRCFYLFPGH
Experimental: (§1) The widely used substrate for caspase 1, acetyl-tryptophan-glutamate-histidine-spartic acid-amino carbamoyl coumarin, was used. Kinetic measurements are performed in a total reaction volume of 30 μl in 384-well microtiter plates. Caspase 1, at a final concentration of 0.2-1 nM (active site), is incubated with the compounds at twelve varying concentrations in a buffer containing 20 mM Hepes (pH 7.4), 1 mM EDTA, 100 mM NaCl, 0.1% CHAPS, 10% sucrose, 10 mM DTT for 20 minutes at room temperature. Control reactions in the absence of inhibitor are performed in replicates of 12. The reactions are initiated by adding the substrate to a final concentration of 4 μM. The rate of substrate hydrolysis is measured by monitoring the increase in fluorescence at an excitation wavelength of 380 nm and an emission wavelength of 450 nm that results from cleavage of the aniline bond in the substrate by the enzyme. The apparent inhibition constants for the compounds are determined from the enzyme progress curves (Kuzmic, Elrod et al. 2000) and are then used to calculate the inhibition constants for competitive inhibitors (Km=8 μM).

Caspase 8 = Caspase 8 (Homo sapiens, UniProt Q14790); test: Inhibition Assay for Caspase 8; details: Caspase-8 inhibition constant; pH 7.4; read-out: Ki Cas-8
Experimental: as §1, with “for caspase 8, […]-amino carbamoyl” for “for caspase 1, acetyl-tryptophan-glutamate-histidine-spartic acid-amino carbamoyl”, “plates. Caspase 8, at a” for “plates. Caspase 1, at a”, “concentration of 2 μM. The” for “concentration of 4 μM. The”, “competitive inhibitors (Km=25.7 μM).” for “competitive inhibitors (Km=8 μM).”

Cathepsin B = Cathepsin B (Homo sapiens, UniProt P07858); test: Cathepsin B inhibition assay, selectivity for cathepsin S over cathepsin B; details: ratio of cathepsin B inhibition constant to cathepsin S inhibition constant
Experimental: The optimal substrate for cathepsin B, acetyl-histidine-proline-valine-lysine-amino carbamoyl coumarin, was identified from screening a combinatorial library of fluorogenic peptide substrates (Harris, J. L., B. J. Backes, et al., Proc Natl Acad Sci US A 2000, 97(14), 7754-9). Kinetic measurements are performed in a total reaction volume of 30 μl in 384-well microtiter plates. Cathepsin B, at a final concentration of 1.5 nM (active site), is incubated with the compounds at twelve varying concentrations in a buffer containing 100 mM NaAc (pH5.5), 1 mM EDTA, 100 mM NaCl, 0.01% Brij-35 for 20 minutes at room temperature. Control reactions in the absence of inhibitor are performed in replicates of 24. The reactions are initiated by adding the substrate, acetyl-histidine-proline-valine-lysine-amino carbamoyl coumarin, to a final concentration of 10 μM. The rate of substrate hydrolysis is measured by monitoring the increase in fluorescence at an excitation wavelength of 380 nm and an emission wavelength of 450 nm that results from cleavage of the aniline bond in the substrate by the enzyme. The apparent inhibition constants for the compounds are determined from the enzyme progress curves (Kuzmic, P., K. C. Elrod, et al., Anal Biochem 2000, 286(1), 45-50) and are then used to calculate the inhibition constants for competitive inhibitors.
(§2) Selectivity for cathepsin S in the presence of cathepsin isozymes was determined by the ratio of the cathepsin isozyme inhibition constant of a compound of the present invention to the cathepsin S inhibition constant of the same compound. Preferred compounds of the present invention selective for cathepsin S have ratios of greater than 10. More preferred compounds of the present invention selective for cathepsin S have ratios of greater than 100. Most preferred compounds of the present invention selective for cathepsin S have ratios of greater than 1000.

Cathepsin L = Cathepsin L (Homo sapiens, UniProt P07711); test: Cathepsin L inhibition assay, selectivity for cathepsin S over cathepsin L; details: ratio of cathepsin L inhibition constant to cathepsin S inhibition constant
Experimental: The optimal substrate for cathepsin L, acetyl-histidine-lysine-phenylalanine-lysine-amino carbamoyl coumarin, was identified from screening a combinatorial library of fluorogenic peptide substrates (Harris, J. L., B. J. Backes, et al.; Proc Natl Acad Sci USA 2000, 97(14), 7754-9). Kinetic measurements are performed in a total reaction volume of 30 μl in 384-well microtiter plates. Cathepsin L, at a final concentration of 0.1 nM (active site), is incubated with the compounds at twelve varying concentrations in a buffer containing 100 mM NaAc (pH5.5), 1 mM EDTA, 100 mM NaCl, 0.01% Brij-35 for 20 minutes at room temperature. Control reactions in the absence of inhibitor are performed in replicates of 24. The reactions are initiated by adding the substrate, acetyl-histidine-lysine-phenylalanine-lysine-amino carbamoyl coumarin, to a final concentration of 20 μM. The rate of substrate hydrolysis is measured by monitoring the increase in fluorescence at an excitation wavelength of 380 nm and an emission wavelength of 450 nm that results from cleavage of the aniline bond in the substrate by the enzyme. The apparent inhibition constants for the compounds are determined from the enzyme progress curves (Kuzmic, P., K. C. Elrod, et al., Anal Biochem 2000, 286(1), 45-50) and are then used to calculate the inhibition constants for competitive inhibitors.
as §2

Chain of Caspase 8 (Q14790 217-374 limits assumed, species assumed): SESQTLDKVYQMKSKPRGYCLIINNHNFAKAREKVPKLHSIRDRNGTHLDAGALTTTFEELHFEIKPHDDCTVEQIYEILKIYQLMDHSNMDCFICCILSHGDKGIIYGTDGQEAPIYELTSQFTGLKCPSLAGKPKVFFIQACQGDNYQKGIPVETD
Chain of Caspase 8 (Q14790 385-479 limits assumed, species assumed): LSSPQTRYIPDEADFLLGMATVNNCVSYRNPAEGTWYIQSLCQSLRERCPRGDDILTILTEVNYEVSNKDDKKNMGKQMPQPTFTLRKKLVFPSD
Chain of Cathepsin L (P07711 114-333, species assumed): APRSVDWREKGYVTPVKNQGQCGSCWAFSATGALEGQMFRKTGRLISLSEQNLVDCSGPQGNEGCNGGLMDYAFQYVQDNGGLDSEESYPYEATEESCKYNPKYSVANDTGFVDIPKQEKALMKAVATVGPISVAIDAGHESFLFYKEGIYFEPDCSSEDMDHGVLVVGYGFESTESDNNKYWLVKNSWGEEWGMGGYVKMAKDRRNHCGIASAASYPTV

Row | Structure (SMILES) | Ki (Caspase 1) [µM] | Ki (Caspase 8) [µM] | Selectivity for Cat. S over Cat. B (Cathepsin B) | Selectivity for Cat. S over Cat. L (Cathepsin L)
1 | O=C1C[C@H](NC(=O)[C@H](CC2CCCC2)NC(=O)c2ccc(-c3cccc(F)c3)o2)C(O)O1 (stereo partly drawn) [Example 1, (3S)-(3-Cyclopentyl-(2S)-{[5-(3-fluoro-phenyl)-furan-2-carbonyl]-amino}-propionylamino)-4-oxo-butyric acid] | > 1 | > 1 | +++ (+++, >1000) | ++ (++, >100)
2 | O=C1C[C@H](NC(=O)[C@H](CC2CCCC2)NC(=O)N2CCOCC2)C(O)O1 (stereo partly drawn) [Example 2, (3S)-{3-Cyclopentyl-(2S)-[(morpholine-4-carbonyl)-amino]-propionylamino}-4-oxo-butyric acid] | > 100 | > 10 | +++ (+++, >1000) | ++ (++, >100)
3 | O=C1C[C@H](NC(=O)[C@H](CC2CCCCC2)OC(=O)N2CCOCC2)C(O)O1 (stereo partly drawn) [Example 3, (3S)-{3-cyclohexyl-(2S)-(morpholine-4-carbonyloxy)-propionylamino}-4-oxo-butyric acid] | > 10 | > 10 | +++ (+++, >1000) | + (+, >10)
4 | O=C[C@H](CC(=O)O)NC(=O)[C@@H](CC(=O)N1CCOCC1)CC1CCCC1 [Example 4, (3S)-[(2R)-Cyclopentylmethyl-4-morpholin-4-yl-4-oxo-butyrylamino]-4-oxo-butyric acid] | > 10 | > 10 | +++ (+++, >1000) | ++ (++, >100)
5 | O=C1C[C@H](NC(=O)O[C@@H](CC2CCCC2)Cn2cnc3cc(Cl)c(Cl)cc32)C(O)O1 (stereo partly drawn) [Example 5, (3S)-[(1S)-Cyclopentylmethyl-2-(5,6-dichloro-benzoimidazol-1-yl)-ethoxycarbonylamino]-4-oxo-butyric acid] | > 10 | > 10 | +++ (+++, >1000) | + (+, >10)
6 | O=C1C[C@H](NC(=O)[C@@H](CC(=O)N2CCOCC2)CC2CCCCC2)C(O)O1 (stereo partly drawn) [Example 6, (3S)-{(2R)-Cyclohexylmethyl-4-morpholin-4-yl-4-oxo-butyrylamino}-4-oxo-butyric acid] | > 100 | > 10 | +++ (+++, >1000) | ++ (++, >100)
7 | O=C1C[C@H](NC(=O)[C@H](CC2CCCCC2)NS(=O)(=O)c2cccc(OC(F)(F)F)c2)C(O)O1 (stereo partly drawn) [Example 7, (3S)-[3-Cyclohexyl-(2S)-(3-trifluoromethoxy-benzenesulfonylamino)-propionylamino]-4-oxo-butyric acid] | > 10 | > 10 | +++ (+++, >1000) | ++ (++, >100)
8 | O=C1C[C@H](NC(=O)[C@H](CC2CCCC2)NS(=O)(=O)c2cccc(OC(F)(F)F)c2)C(O)O1 (stereo partly drawn) [Example 8, (3S)-[3-Cyclopentyl-(2S)-(3-trifluoromethoxy-benzenesulfonylamino)-propionylamino]-4-oxo-butyric acid] | > 100 | > 10 | +++ (+++, >1000) | ++ (++, >100)
9 | CC(C)(C)C[C@H](OC(=O)N[C@H]1CC(=O)OC1O)C(=O)N1CCOCC1 (stereo partly drawn) [Example 9, (3S)-[3,3-Dimethyl-(1S)-(morpholine-4-carbonyl)-butoxycarbonylamino]-4-oxo-butyric acid] | > 100 | > 100 | ++ (++, >100) | ++ (++, >100)
10 | O=C1C[C@H](NC(=O)O[C@@H](CC2CCCCC2)C(=O)N2CCOCC2)C(O)O1 (stereo partly drawn) [Example 10, (3S)-[2-cyclohexyl-(1S)-(morpholin-4-carbonyl)-ethoxycarbonylamino]-4-oxo-butyric acid] | > 100 | > 100 | +++ (+++, >1000) | +++ (+++, >1000)
